Measured values: US20220054494A1, “METHODS FOR TREATING BLADDER AND URETHRA DYSFUNCTION AND DISEASE” (University of Pittsburgh - Of the Commonwealth System of …, priority 2019, published 2022)
“Also recorded” adds a separate entry of the source.

Legend:
aged rats = test: Voiding analysis in metabolic cages, aged rats; type: in vivo, rat
[1] = Jackson et al., J Pharmacol Exp Ther 2016; cited from earlier work
purines in urine = test: Purines in urine by mass spectrometry; type: in vivo, rat; settings: aged rats, oral 8-AG 5 mg/kg/day, 6 weeks
Procedure: Protocol 2: Purines in urine were measured by mass spectrometry using selected reaction monitoring. Urine samples were diluted 1 to 30 with water, and heavy isotope internal standards were added to each sample. Purines were separated by reversed-phase ultra-performance liquid chromatography (Waters UPLC BEH C18 column, 1.7 μm beads; 2.1×150 mm; Milford, Mass.) and quantified by selected reaction monitoring using a triple quadrupole mass spectrometer (TSQ Quantum-Ultra; THERMOFISHER SCIENTIFIC®, San Jose, Calif.) with a heated electrospray ionization source. The mobile phase was a linear gradient flow rate (300 μL/min) of 1% acetic acid in water (pH, 3; mobile phase A) and 100% methanol (mobile phase B) and was delivered with a Waters Acquity ultra-performance liquid chromatographic system. The gradient (A/B) settings were as follows: from 0 to 2 minutes, 99.6%/0.4%; from 2 to 3 minutes, to 98.0%/2.0%; from 3 to 4 minutes, to 85.0%/15.0%; and from 4 to 6.5 minutes, to 99.6%/0.4%. The instrument parameters were: sample tray temperature, 10° C.; column temperature, 50° C.; ion spray voltage, 4.0 kilovolts; ion transfer tube temperature, 350° C.; source vaporization temperature, 320° C.; Q2 CID gas, argon at 1.5 mTorr; sheath gas, nitrogen at 60 psi; auxillary gas, nitrogen at 35 psi; Q1/Q3 width, 0.7/0.7 units full-width half-maximum; scan width, 0.6 units; scan time, 0.01 seconds. […]
Purine Metabolome Measurement: Purines in urine were measured by mass spectrometry using selected reaction monitoring.(7,13) Urine samples were diluted 1 to 30 with water, and heavy isotope internal standards were added to each sample. Purines were separated by reversed-phase ultra-performance liquid chromatography (Waters UPLC BEH C18 column, 1.7 μm beads; 2.1×150 mm; Milford, Mass.) and quantified by selected reaction monitoring using a triple quadrupole mass spectrometer (TSQ Quantum-Ultra; THERMOFISHER SCIENTIFIC®, San Jose, Calif.) with a heated electrospray ionization source. […]

CYP-treated rats = test: Laser Doppler bladder blood flow in CYP cystitis model; type: in vivo, rat; settings: CYP (75 mg/kg i.p.) female Sprague Dawley rats; oral 8-AG 5 mg/kg/day starting one week prior to CYP
Procedure: Animals: Female Sprague Dawley rats were employed in this example (Charles River; Wilmington, Mass.). Three groups of animals were included. Group 1 received an i.p. injection of saline and was used as a control; groups 2 and 3 received an i.p. injection of cyclophosphamide (CYP, SIGMA-ALDRICH®, St Louis, Mo., day 0, 3, 6, sacrifice day 8, 75 mg/kg, i.p.) with group 3 treated with oral 8-AG (5 mg/kg/day; starting one week prior to CYP). CYP induced bladder inflammation and is a well-established pre-clinical model for BPS/IC.
Blood Flow Changes: Real-time bladder blood perfusion (1 mm^3 tissue) was accomplished using a BLF22D laser Doppler flowmeter (Transonic Systems, Inc) with a surface probe (TypeS-APLPHS) applied to the serosal surface of the bladder (apex and neck) wall using Doppler light shift from moving RBCs to analyze flow by the Bonner algorithm. This method gives robust, non-invasive microvascular flow signals in the bladder wall of anesthetized rats.

Nc1nc2[nH]c(N)nc2c(=O)[nH]1 [8-AG, 8-Aminoguanine]
intercontraction interval (aged rats; aged Fischer 344 rats, oral 8-AG 5 mg/kg/day, 6 weeks): attenuates | intercontraction interval (aged rats; aged Fisher 344 rats, 8-AG 5 mg kg/day via drinking water, 1 month): attenuates | diuresis [1]: induce | glucosuria [1]: induce | natriuresis [1]: induce | potassium excretion [1]: reduce | urinary hypoxanthine levels (purines in urine): significantly reduced; also recorded: levels comparable to younger rats; also recorded: normalizes; also recorded: restored to younger levels | urinary guanosine levels (purines in urine; compared with young rats): similar; also recorded: recovered | urinary levels of 8-AG (purines in urine; undetectable in untreated aged rats): restored to younger levels | bladder blood flow (CYP-induced hyperemia) (CYP-treated rats): abolished; also recorded: reversed to a control state
